Test results from ChEMBL document CHEMBL1157037, “Synthesis and in vitro antiproliferative activities of quinoline derivatives” (Eur J Med Chem, 2010).

Key:
Type in all cases: functional, cell-based
PA-1 = assay: Antiproliferative activity against human PA1 cells after 48 hrs by resazurin reduction assay; settings: PA-1, 48 h
MCF7 = assay: Antiproliferative activity against human MCF7 cells after 48 hrs by resazurin reduction assay; settings: MCF7, 48 h
[1] = Antiproliferative activity against human fibroblast cells after 48 hrs by resazurin reduction assay

Row | IC50 (MCF7) [µM] | Compound | IC50 (PA-1) [µM] | IC50 [1] [µM]
1 | > 100 | COc1ccc2ccc(-c3cc4ccccc4nc3OC)cc2n1 | 36 | 54
2 | > 100 | CCOc1ccc2ccc(-c3cc4ccccc4nc3OCC)cc2n1 | 37 | 37
3 | > 100 | CCOc1ccc2ccc(-c3cc4ccc(-c5cc6ccccc6nc5OCC)cc4nc3OCC)cc2n1 | 50 | > 100
